Experimental data taken from PubChem BioAssay AID248 (DTP/NCI, 2004).
“And” between values parts separate entries of the source, which are not always exact repeats. Equal entries are not always repeated. Inconclusive results and toxic doses are left out.

System: L1210 leukemia ip in BDF1 mice, survival T/C
Test: NCI In Vivo Anticancer Drug Screen. Data for tumor model L1210 Leukemia (intraperitoneal) in B6D2F1 (BDF1) mice
Settings: endpoint: mean survival time, higher = longer survival
Procedure, shortened: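 Tumor cells were implanted, animals were treated, and survival was followed. The result divides the treated measurement by the vehicle-control measurement.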

SMILES: O=c1[nH]c(=O)n(C2CC(O)C(CO)O2)cc1C(F)(F)F (stereo not drawn)
- T/C (dose: 250.0 mg/kg/injection, schedule: Q01DX001 (ip), vehicle: saline): 112 % of control
- T/C (dose: 250.0 mg/kg/injection, schedule: Q01DX Z (ip), vehicle: saline): 157 % of control
- T/C (dose: 251.0 mg/kg/injection, schedule: Q01DX Z (ip), vehicle: saline): 108 % of control
- T/C (dose: 256.0 mg/kg/injection, schedule: Q01DX001 (oral), vehicle: saline): 112 % of control
- T/C (dose: 256.0 mg/kg/injection, schedule: Q01DX009 (ip), vehicle: saline): 150 % of control
- T/C (dose: 256.0 mg/kg/injection, schedule: Q01DX009 (oral), vehicle: saline): 157 % of control
- T/C (dose: 256.0 mg/kg/injection, schedule: Q03HX016 (ip), vehicle: water): 153 % of control
- T/C (dose: 256.0 mg/kg/injection, schedule: Q04DX003 (ip), vehicle: water): 116 % of control
- T/C (dose: 300.0 mg/kg/injection, schedule: Q01DX001 (ip), vehicle: water): 106 % of control
- T/C (dose: 300.0 mg/kg/injection, schedule: Q01DX017 (ip), vehicle: water): 119 % of control
- T/C (dose: 300.0 mg/kg/injection, schedule: Q01DX Z (ip), vehicle: water): 102 % of control
- T/C (dose: 300.0 mg/kg/injection, schedule: Q01DX Z (oral), vehicle: saline): 116 % of control
- T/C (dose: 300.0 mg/kg/injection, schedule: Q03DX Z (ip), vehicle: saline): 118 % of control
- T/C (dose: 300.0 mg/kg/injection, schedule: Q04DX005 (ip), vehicle: water): 123 % of control
- T/C (dose: 320.0 mg/kg/injection, schedule: Q01DX015 (ip), vehicle: saline): 98 % of control
- T/C (dose: 350.0 mg/kg/injection, schedule: Q01DX Z (ip), vehicle: saline): 111 % of control
- T/C (dose: 351.0 mg/kg/injection, schedule: Q01DX Z (ip), vehicle: saline): 114 % of control
- T/C (dose: 400.0 mg/kg/injection, schedule: Q01DX001 (ip), vehicle: saline): 98 % of control and 113 % of control
- T/C (dose: 400.0 mg/kg/injection, schedule: Q01DX Z (im), vehicle: saline): 159 % of control
- T/C (dose: 400.0 mg/kg/injection, schedule: Q## X001 (ip), vehicle: saline): 116 % of control
- T/C (dose: 480.0 mg/kg/injection, schedule: Q01DX015 (ip), vehicle: saline): 98 % of control
- T/C (dose: 500.0 mg/kg/injection, schedule: Q01DX001 (ip), vehicle: saline): 112 % of control
- T/C (dose: 512.0 mg/kg/injection, schedule: Q01DX001 (oral), vehicle: saline): 112 % of control
- T/C (dose: 512.0 mg/kg/injection, schedule: Q01DX009 (ip), vehicle: saline): 117 % of control
- T/C (dose: 512.0 mg/kg/injection, schedule: Q04DX003 (ip), vehicle: water): 120 % of control
- T/C (dose: 512.0 mg/kg/injection, schedule: Q## X008 (oral), vehicle: saline): 121 % of control
- T/C (dose: 600.0 mg/kg/injection, schedule: Q01DX001 (ip), vehicle: water): 107 % of control
- T/C (dose: 600.0 mg/kg/injection, schedule: Q01DX Z (oral), vehicle: saline): 106 % of control
- T/C (dose: 600.0 mg/kg/injection, schedule: Q02DX009 (ip), vehicle: water): 159 % of control
- T/C (dose: 600.0 mg/kg/injection, schedule: Q04DX005 (ip), vehicle: water): 119 % of control
- T/C (dose: 800.0 mg/kg/injection, schedule: Q01DX001 (ip), vehicle: saline): 107 % of control and 116 % of control
- T/C (dose: 800.0 mg/kg/injection, schedule: Q01DX006 (iv), vehicle: saline): 154 % of control
- T/C (dose: 800.0 mg/kg/injection, schedule: Q01DX Z (ip), vehicle: saline): 124 % of control
- T/C (dose: 800.0 mg/kg/injection, schedule: Q01DX Z (oral), vehicle: saline): 110 % of control
- T/C (dose: 800.0 mg/kg/injection, schedule: Q## X001 (ip), vehicle: saline): 121 % of control
- T/C (dose: 1000.0 mg/kg/injection, schedule: Q01DX001 (ip), vehicle: saline): 123 % of control
- T/C (dose: 1024.0 mg/kg/injection, schedule: Q01DX001 (oral), vehicle: saline): 121 % of control
- T/C (dose: 1024.0 mg/kg/injection, schedule: Q01DX009 (oral), vehicle: saline): 101 % of control
- T/C (dose: 1024.0 mg/kg/injection, schedule: Q## X003 (oral), vehicle: saline): 156 % of control
- T/C (dose: 1200.0 mg/kg/injection, schedule: Q01DX001 (ip), vehicle: water): 104 % of control
- T/C (dose: 1200.0 mg/kg/injection, schedule: Q01DX Z (im), vehicle: saline): 121 % of control
- T/C (dose: 1200.0 mg/kg/injection, schedule: Q01DX Z (sc), vehicle: saline): 115 % of control
- T/C (dose: 1200.0 mg/kg/injection, schedule: Q04DX005 (ip), vehicle: water): 119 % of control
- T/C (dose: 1600.0 mg/kg/injection, schedule: Q01DX Z (im), vehicle: saline): 113 % of control
- T/C (dose: 1600.0 mg/kg/injection, schedule: Q01DX Z (oral), vehicle: saline): 97 % of control
- T/C (dose: 1600.0 mg/kg/injection, schedule: Q01DX Z (sc), vehicle: saline): 107 % of control
- T/C (dose: 2400.0 mg/kg/injection, schedule: Q01DX001 (ip), vehicle: water): 104 % of control
- T/C (dose: 4096.0 mg/kg/injection, schedule: Q## X008 (oral), vehicle: saline): 151 % of control
